# Source: US11230540B2, “Substituted triazole derivatives and uses thereof” (Bayer Pharma Aktiengesellschaft, priority 2017, dated 2022)
# Structures can show the parent of a compound that is named as a salt.
# Assays:
# human V2 receptor = biological target: T1, human V2 receptor (Homo sapiens, UniProt P30518); test: Cellular in vitro assay for vasopressin receptor activity, V2 receptor cell line (CRE-luciferase); format: cell-based; details: CHO cell line transfected with human V2 receptor; [Arg8]-vasopressin at EC50 concentration; read-out: IC50 hV2
# T1 construct: expressed in transfected cells; host or cells: CHO K1 (Chinese hamster ovary) expressing firefly luciferase under a CRE-responsive promoter
# T1 sequence (P30518 whole entry): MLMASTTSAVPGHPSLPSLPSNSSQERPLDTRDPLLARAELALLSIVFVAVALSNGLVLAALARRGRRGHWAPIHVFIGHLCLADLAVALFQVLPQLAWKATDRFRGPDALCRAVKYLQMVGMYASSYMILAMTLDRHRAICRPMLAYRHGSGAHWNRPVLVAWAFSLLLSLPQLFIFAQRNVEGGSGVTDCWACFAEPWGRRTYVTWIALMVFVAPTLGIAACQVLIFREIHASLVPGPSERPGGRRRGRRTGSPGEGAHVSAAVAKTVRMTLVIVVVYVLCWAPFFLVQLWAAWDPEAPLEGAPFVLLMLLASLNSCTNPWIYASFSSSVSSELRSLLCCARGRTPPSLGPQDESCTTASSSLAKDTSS
# Description: (§1) B-1. Cellular In Vitro Assay for Determining Vasopressin Receptor Activity
# (§2) The identification of agonists and antagonists of the V1a and V2 vasopressin receptors from humans, rats and dogs as well as the quantification of the activity of the compounds of the invention is carried out using recombinant cell lines. These cell lines originally derive from a hamster's ovary epithelial cell (Chinese Hamster Ovary, CHO K1, ATCC: American Type Culture Collection, Manassas, Va. 20108, USA). The test cell lines constitutively express the human, rat or dog V1a or V2 receptors. In case of the […] V1a receptors, cells are also stably transfected with a modified form of the calcium-sensitive photoproteins aequorin (human and rat V1a) or obelin (dog V1a), which, after reconstitution with the cofactor coelenterazine, emit light when there are increases in free calcium concentrations [Rizzuto R, Simpson A W, Brini M, Pozzan T, Nature 358, 325-327 (1992); Illarionov B A, Bondar V S, Illarionova V A, Vysotski E S, Gene 153 (2), 273-274 (1995)]. The resulting vasopressin receptor cells react to stimulation of the recombinantly expressed V1a receptors by intracellular release of calcium ions, which can be quantified by the resulting photoprotein luminescence. The Gs-coupled V2 receptors are stably transfected into cell lines expressing the gene for firefly luciferase under control of a CRE-responsible promoter. Activation of V2 receptors induces the activation of the CRE-responsive promoter via cAMP increase, thereby inducing the expression of firefly luciferase. The light emitted by photoproteins of V1a cell lines as well as the light emitted by firefly luciferase of V2 cell lines corresponds to the activation or inhibition of the respective vasopressin receptor. The bioluminescence of the cell lines is detected using a suitable luminometer [Milligan G, Marshall F, Rees S, Trends in Pharmacological Sciences 17, 235-237 (1996)].
# Vasopressin V2 Receptor Cell Lines:
# On the day before the assay, the cells are plated out in culture medium (DMEM/F12, 2% FCS, 2 mM glutamine, 10 mM HEPES) in 384-well microtiter plates and kept in a cell incubator (96% humidity, 5% v/v CO2, 37° C.). On the day of the assay, test compounds in various concentrations and the agonist [Arg^8]-vasopressin at EC50 concentration are added together to the wells, and plates are incubated for 3 hours in a cell incubator. Upon addition of the cell lysis reagent Triton™ and the substrate luciferin, luminescence of firefly luciferase is measured in a luminometer.
# (§3) Table 1A below lists individual IC50 values for the compounds of the invention (including racemic mixtures as well as separated enantiomers) that were obtained from cell lines transfected with the human V1a or V2 receptor: […]
# human V1a receptor = biological target: T2, human V1a receptor (Homo sapiens, UniProt P37288); test: Cellular in vitro assay for vasopressin receptor activity, V1a receptor cell line (aequorin luminescence); format: cell-based; details: for IC50: CHO cell line transfected with human V1a receptor, [Arg8]-vasopressin at EC50 concentration, read-out: IC50 hV1a; for ratio IC50 hV2/hV1a: selectivity ratio of the IC50 values hV2/hV1a
# T2 construct: expressed in transfected cells; host or cells: CHO K1 (Chinese hamster ovary), also stably transfected with a modified aequorin
# T2 sequence (P37288 whole entry): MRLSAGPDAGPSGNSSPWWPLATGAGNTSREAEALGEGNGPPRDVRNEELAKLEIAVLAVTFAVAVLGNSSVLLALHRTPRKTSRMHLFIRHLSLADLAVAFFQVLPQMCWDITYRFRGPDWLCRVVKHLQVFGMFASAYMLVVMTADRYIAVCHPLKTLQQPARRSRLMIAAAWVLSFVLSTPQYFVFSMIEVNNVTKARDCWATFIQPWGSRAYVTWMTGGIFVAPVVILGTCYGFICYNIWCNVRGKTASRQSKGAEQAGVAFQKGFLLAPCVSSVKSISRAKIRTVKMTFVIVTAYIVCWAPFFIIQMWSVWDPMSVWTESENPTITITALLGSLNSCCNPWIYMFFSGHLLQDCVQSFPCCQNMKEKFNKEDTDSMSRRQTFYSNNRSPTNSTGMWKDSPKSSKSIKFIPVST
# Description: as §1, §2
# Vasopressin V1a Receptor Cell Lines:
# On the day before the assay, the cells are plated out in culture medium (DMEM/F12, 2% FCS, 2 mM glutamine, 10 mM HEPES, 5 μg/ml coelenterazine) in 384-well microtiter plates and kept in a cell incubator (96% humidity, 5% v/v CO2, 37° C.). On the day of the assay, test compounds in various concentrations are placed for 10 minutes in the wells of the microtiter plate before the agonist [Arg^8]-vasopressin at EC50 concentration is added. The resulting light signal is measured immediately in a luminometer.
# as §3
Structure (SMILES),IC50 (human V2 receptor) [µM],IC50 (human V1a receptor) [µM],ratio IC50 hV2/hV1a (human V1a receptor)
"CC1(O)CCN(C(=O)c2nc(Cn3nc(-c4ccc(Cl)cc4)n(C[C@H](O)C(F)(F)F)c3=O)nn2CCC(F)(F)F)C1 (mixture of isomers) [Example 22, 5-(4-Chlorophenyl)-2-{[5-{[3-hydroxy-3-methylpyrrolidin-1-yl]carbonyl}-1-(3,3,3-trifluoropropyl)-1H-1,2,4-triazol-3-yl]methyl}-4-[(2S)-3,3,3-trifluoro-2-hydroxypropyl]-2,4-dihydro-3H-1,2,4-triazol-3-one]",0.435,0.29,1.5
"NC(CNC(=O)c1nc(Cn2nc(-c3ccc(Cl)cc3)n(C[C@H](O)C(F)(F)F)c2=O)nn1-c1ncccc1C(F)(F)F)C(F)(F)F (mixture of isomers) [Example 51, N-(2-Amino-3,3,3-trifluoropropyl)-3-({3-(4-chlorophenyl)-5-oxo-4-[(2S)-3,3,3-trifluoro-2-hydroxypropyl]-4,5-dihydro-1H-1,2,4-triazol-1-yl}methyl)-1-[3-(trifluoromethyl)pyridin-2-yl]-1H1,2,4-triazole-5-carboxamide hydrochloride]",1.19,0.135,8.8
"CC1(O)CCN(C(=O)c2nc(Cn3nc(-c4ccc(Cl)cc4)n(C[C@H](O)C(F)(F)F)c3=O)nn2CCC(F)(F)F)C1 (single isomer, unassigned) [Example 23]",0.245,0.285,0.9
"CC(C)(N)CNC(=O)c1nc(Cn2nc(-c3ccc(Cl)cc3)n(C[C@H](O)C(F)(F)F)c2=O)nn1-c1ncccc1OC(F)(F)F [Example 3, N-(2-Amino-2-methylpropyl)-3-({3-(4-chlorophenyl)-5-oxo-4-[(2S)-3,3,3-trifluoro-2-hydroxypropyl]-4,5-dihydro-1H-1,2,4-triazol-1-yl}methyl)-1-[3-(trifluoromethoxy)pyridin-2-yl]-1H-1,2,4-triazole-5-carboxamide]",0.47,0.00083,569.7
"CC1(CNC(=O)c2nc(Cn3nc(-c4ccc(Cl)cc4)n(C[C@H](O)C(F)(F)F)c3=O)nn2-c2ncccc2OC(F)(F)F)COC1 [Example 7, 3-({3-(4-Chlorophenyl)-5-oxo-4-[(2S)-3,3,3-trifluoro-2-hydroxypropyl]-4,5-dihydro-1H-1,2,4-triazol-1-yl}methyl)-N-[(3-methyloxetan-3-yl)methyl]-1-[3-(trifluoromethoxy)pyridin-2-yl]-1H1,2,4-triazole-5-carboxamide]",0.335,0.00255,131.4
"CC1(CNC(=O)c2nc(Cn3nc(-c4ccc(Cl)cc4)n(C[C@H](O)C(F)(F)F)c3=O)nn2-c2cnccc2Cl)COC1 [Example 8, 3-({3-(4-Chlorophenyl)-5-oxo-4-[(2S)-3,3,3-trifluoro-2-hydroxypropyl]-4,5-dihydro-1H-1,2,4-triazol-1-yl}methyl)-1-(4-chloropyridin-3-yl)-N-[(3-methyloxetan-3-yl)methyl]-1H-1,2,4-triazole-5-carboxamide]",0.0985,0.00068,144.9

# Second part, the compound after the results:
IC50 (human V2 receptor) [µM],IC50 (human V1a receptor) [µM],ratio IC50 hV2/hV1a (human V1a receptor),Structure (SMILES)
0.285,0.0015,190.0,"O=CN1CCC(NC(=O)c2nc(Cn3nc(-c4ccc(Cl)cc4)n(C[C@H](O)C(F)(F)F)c3=O)nn2-c2cnccc2Cl)C1 (mixture of isomers) [Example 13, 3-({3-(4-Chlorophenyl)-5-oxo-4-[(2S)-3,3,3-trifluoro-2-hydroxypropyl]-4,5-dihydro-1H-1,2,4-triazol-1-yl}methyl)-1-(4-chloropyridin-3-yl)-N-[1-formylpyrrolidin-3-yl]-1H-1,2,4-triazole-5-carboxamide]"
0.315,0.107,2.9,"O=CN1CCC(NC(=O)c2nc(Cn3nc(-c4ccc(Cl)cc4)n(C[C@H](O)C(F)(F)F)c3=O)nn2-c2cccnc2Cl)C1 (mixture of isomers) [Example 14, 3-({3-(4-Chlorophenyl)-5-oxo-4-[(2S)-3,3,3-trifluoro-2-hydroxypropyl]-4,5-dihydro-1H-1,2,4-triazol-1-yl}methyl)-1-(2-chloropyridin-3-yl)-N-[1-formylpyrrolidin-3-yl]-1H-1,2,4-triazole-5-carboxamide]"
0.17,0.035,4.9,"O=C(c1nc(Cn2nc(-c3ccc(Cl)cc3)n(C[C@H](O)C(F)(F)F)c2=O)nn1CCC(F)(F)F)N1CCNC(C(F)(F)F)C1 (mixture of isomers) [Example 25, 5-(4-Chlorophenyl)-4-[(2S)-3,3,3-trifluoro-2-hydroxypropyl]-2-{[5-{[3-(trifluoromethyl)piperazin-1-yl]carbonyl}-1-(3,3,3-trifluoropropyl)-1H-1,2,4-triazol-3-yl]methyl}-2,4-dihydro-3H-1,2,4-triazol-3-one]"
0.3,0.185,1.6,"CC1(O)CCN(C(=O)c2nc(Cn3nc(-c4ccc(Cl)cc4)n(C[C@H](O)C(F)(F)F)c3=O)nn2CCC(F)(F)F)C1 (single isomer, unassigned) [Example 24]"
0.082,0.00066,124.2,"CC(C)(O)CNC(=O)c1nc(Cn2nc(-c3ccc(Cl)cc3)n(C[C@H](O)C(F)(F)F)c2=O)nn1-c1ncccc1OC(F)(F)F [Example 1, 3-({3-(4-Chlorophenyl)-5-oxo-4-[(2S)-3,3,3-trifluoro-2-hydroxypropyl]-4,5-dihydro-1H-1,2,4-triazol-1-yl}methyl)-N-(2-hydroxy-2-methylpropyl)-1-[3-(trifluoromethoxy)pyridin-2-yl]-1H1,2,4-triazole-5-carboxamide]"
0.023,0.00045,51.7,"CC(C)(O)CNC(=O)c1nc(Cn2nc(-c3ccc(Cl)cc3)n(C[C@H](O)C(F)(F)F)c2=O)nn1-c1cnccc1Cl [Example 2, 3-({3-(4-Chlorophenyl)-5-oxo-4-[(2S)-3,3,3-trifluoro-2-hydroxypropyl]-4,5-dihydro-1H-1,2,4-triazol-1-yl}methyl)-1-(4-chloropyridin-3-yl)-N-(2-hydroxy-2-methylpropyl)-1H-1,2,4-triazole-5-carboxamide]"
0.41,0.00049,845.4,"CC(C)(N)CNC(=O)c1nc(Cn2nc(-c3ccc(Cl)cc3)n(C[C@H](O)C(F)(F)F)c2=O)nn1-c1cnccc1Cl [Example 4, N-(2-Amino-2-methylpropyl)-3-({3-(4-chlorophenyl)-5-oxo-4-[(2S)-3,3,3-trifluoro-2-hydroxypropyl]-4,5-dihydro-1H-1,2,4-triazol-1-yl}methyl)-1-(4-chloropyridin-3-yl)-1H-1,2,4-triazole-5-carboxamide]"
1.13,0.0103,108.7,"CC1(O)CCN(C(=O)c2nc(Cn3nc(-c4ccc(Cl)cc4)n(C[C@H](O)C(F)(F)F)c3=O)nn2-c2ncccc2OC(F)(F)F)C1 (stereo partly drawn) [Example 5, 5-(4-Chlorophenyl)-2-[(5-[{3-hydroxy-3-methylpyrrolidin-1-yl]carbonyl}-1-[3-(trifluoromethoxy)pyridin-2-yl]-1H-1,2,4-triazol-3-yl)methyl]-4[(2S)-3,3,3-trifluoro-2-hydroxypropyl]-2,4-dihydro-3H-1,2,4-triazol-3-one]"
0.36,0.00245,146.9,CC1(O)CCN(C(=O)c2nc(Cn3nc(-c4ccc(Cl)cc4)n(C[C@H](O)C(F)(F)F)c3=O)nn2-c2cnccc2Cl)C1 (stereo partly drawn) [Example 6]
